Measurements taken from patent US5273985A, “Glycerin derivative and its pharmacological use” (Eisai Co., Ltd., priority 1988, dated 1993).

Legend:
Human PAF Receptor = target: T1, Human PAF Receptor (Homo sapiens, UniProt P25105); assay: Human PAF receptor binding assay (3H-PAF, platelets); conditions: 3H-PAF 0.6 to 1 nM, 37° C., read-out: PAF receptor antagonism IC50
T1 construct: The platelets were sampled from healthy males by an ordinary method; endogenous in cells; host or cells: human platelets from healthy males (intact platelet suspension)
T1 sequence (P25105 whole entry): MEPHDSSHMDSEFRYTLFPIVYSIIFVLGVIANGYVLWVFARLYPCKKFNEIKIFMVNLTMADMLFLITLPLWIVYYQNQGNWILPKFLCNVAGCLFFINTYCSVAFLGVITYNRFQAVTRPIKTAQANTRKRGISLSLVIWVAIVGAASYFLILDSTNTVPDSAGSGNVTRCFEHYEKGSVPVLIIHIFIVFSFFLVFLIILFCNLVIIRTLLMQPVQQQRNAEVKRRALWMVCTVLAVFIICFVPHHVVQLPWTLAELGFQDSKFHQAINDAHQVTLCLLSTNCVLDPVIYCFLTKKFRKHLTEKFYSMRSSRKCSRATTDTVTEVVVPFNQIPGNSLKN
Description: Human PAF Receptor Binding Assay
The platelets were sampled from healthy males by an ordinary method and suspended in a binding buffer [10 mM phosphate-buffered saline (pH 7.0) containing 0.1 w/v % of BSA and 0.9 mM of CaCl2) to form a suspension having a concentration of 10^8 /460 μl. 20 μl of a solution of the test compound in the binding buffer was placed in a polypropylene tube and then 460 μl of the platelet suspension was added thereto. The mixture was subjected to a vortex treatment and then incubated at 37° C. for 6 min. 20 μl of a solution of ^3 H-PAF in the binding buffer (final ^3 H-PAF concentration: 0.6 to 1 nM) was added thereto and the mixture was incubated for 6 min. 3 ml of a washing solution (saline containing 0.1 w/v % of BSA) cooled with ice was added thereto to terminate the reaction. The reaction mixture was filtered by suction through a glass filter (Whatman GF/C). The glass filter was dried and the radioactivity thereof was determined with a liquid scintillation counter.
The inhibition % was calculated according to the following equation and IC50 so was determined by interpolation from the figure. [formula] wherein: total binding: dpm obtained when the concentration of the medicine or PAF is 0,
non-specific binding: dpm obtained when 10^-5 M of cold PAF was added.

[1] = Determination of stability in aqueous solution; format: physicochemical; conditions: pH 7.4, 37° C., 0.5M sodium phosphate; read-out: Half-value period of disappearance due to hydrolysis (t1/2) (converted)
Description: Determination of Stability in Aqueous Solution
These compounds were unstable in a neutral or alkaline aqueous solution mainly due to the hydrolysis reaction of the N-acetyl or N-benzoyl group. The relationships between the pH and decomposition rate of several compounds were examined to find that they have the same pattern. The decomposition rate constant under conditions (pH 7.4, 37° C.) where they were relatively easily decomposed was determined and the stabilities of the compounds were compared with one another.
9 parts by volume of a buffer solution (0.5M sodium phosphate, pH 7.4) was added to 1 part by volume of an aqueous sample solution (1 mg/ml) and the mixture was kept at 37° C. The sampling was conducted at appropriate time intervals and the residual rate of an unreacted compound was determined by reversed phase high-performance liquid chromatography. Since the decomposition rate of most of the compounds can be approximately represented by the first-order decomposition rate equation, the decomposition rate constant was determined by the least squares method.

[2] = tested on: platelet agglutination caused by PAF; assay: Inhibition of platelet agglutination caused by human PAF (platelet-rich plasma, optical method of Born); format: cell-based; conditions: PAF at minimum concentration for maximum agglutination, read-out: Agglutination inhibiting activity IC50
Description: Effect on the Agglutination Caused by Human PAF
One part by volume of a 3.8% sodium citrate solution was added to 9 parts by volume of blood sampled from the forearm of a healthy adult to whom had been administered no medicine for at least two weeks. A platelet-rich plasma (PRP) was prepared by centrifugation. The inhibition of the platelet agglutination was determined by an optical method of Born et al. with a Hematolaser II® (a platelet agglutination meter of Niko Bioscience Co.). PAF was dissolved in Tyrode solution [Ca^++ (+)] to form a solution having the minimum concentration for causing the maximum agglutination. The test compound was dissolved in a physiological saline.
The agglutination inhibiting activity of the test compound was determined from the rate of inhibition of the maximum light transmittance (maximum agglutination rate) caused by PAF in control PRP. IC50 was determined from the inhibition curve.
The numeral in the column of the Test compound in Table 1 refers to the Example number of the compound.

lethal activity of PAF = assay: Preventive effect against the lethal activity of PAF; format: in vivo, ICR male mice; conditions: 15 minutes before PAF i.v.; for number of dead mice / number of mice (Survival rate): after one hour; for Survival rate: survival after one hour
Description: Preventive Effect Against the Lethal Activity of PAF:
A physiological saline or the test compound was given to ICR male mice weighing around 30 g by intravenous injection. After 15 minutes, 100 wg/kg of PAF was given to them by intravenous injection. Life and death of them were examined after one hour and the survival rate was determined.
The survival rate is given by percentage. The denominator of the fraction
is the number of the mice and the numerator is the number of the dead

[3] = tested on: blood pressure drop induced by PAF; assay: Action on the blood pressure drop induced by PAF; format: in vivo, F344 rats; conditions: Rattus norvegicus, iv, 0.05 h; 0.01 mg/kg, i.v., three minutes after 0.5 μg/kg PAF; ratio of blood pressure rise to drop; read-out: Recovery rate
Description: Action on the Blood Pressure Drop Induced by […]
Cannulae were inserted into the carotid and the jugular of each of F344 rats anesthetized with Pento (50 mg/kg, i. p.). The blood pressure was determined at the carotid and 0.5 ml/kg of PAF or the test compound was given through the jugular. Three minutes after the injection of 0.5 μg/kg of PAF, the test compound was given and the antagonism thereof was evaluated.
The recovery rate shown in Table 4 is the ratio of the blood pressure rise by the test compound to the drop thereof.

Compound | IC50 (Human PAF Receptor) [nM] | half-life [1] [h] | IC50 [2] [nM] | number of dead mice / number of mice (Survival rate) (lethal activity of PAF; 0.03 mg/kg i.v.) | Survival rate (lethal activity of PAF; 0.03 mg/kg i.v.) [%] | number of dead mice / number of mice (Survival rate) (lethal activity of PAF; 0.1 mg/kg i.v.) | Survival rate (lethal activity of PAF; 0.1 mg/kg i.v.) [%] | number of dead mice / number of mice (Survival rate) (lethal activity of PAF; 0.3 mg/kg i.v.) | Survival rate (lethal activity of PAF; 0.3 mg/kg i.v.) [%] | inhibition in vivo at 0.01 mg/kg [3] [%]
CCCCCCCCCCCCCCCCCCNC(=O)OC1CCN(C(=O)OCC(COC(=O)N(Cc2cccc[n+]2CC)C(=O)c2ccccc2OC)OC)CC1 (stereo not shown) [Example 15, 1-Ethyl-2-[N-(2-methoxy)benzoyl-N-{2-methoxy-3-(4-octadecylcarbamoyloxy)piperidinocarbonyloxypropyloxyl}carbonyl]aminomethylpyridinium chloride] | 0.19 | 24.4 | 80 | 2/7 | 71.4 | 3/7 | 57.1 | 0/7 | 100 | 94.6
CCCCCCCCCCCCCCCCCCNS(=O)(=O)c1ccc(CNC(=O)OCC(COC(=O)N(Cc2cccc[n+]2CC)C(=O)c2ccccc2OC)OC)cc1 (stereo not shown) [Example 13, 1-Ethyl-2-[N-(2-methoxy)benzoyl-N-{2-methoxy-3-(4-octadecylsulfamoyl)benzylcarbamoyloxypropyloxy}carbonyl]aminomethylpyridinium chloride] | 0.25 | 21.5 | 72 | 3/7 | 57.1 | 0/7 | 100 | 0/7 | 100 | 89.7
CCCCCCCCCCCCCCCCCCOC(=O)N1CCN(C(=O)OCC(COC(=O)N(Cc2cccc[n+]2CC)C(=O)c2ccccc2OC)OC)CC1 (stereo not shown) [Example 6, 1-Ethyl-2-[N-(2-methoxy)benzoyl-N-{2-methoxy-3-(4-octadecyloxycarbonyl)piperazylcarbonyloxy}propoxycarbonyl]aminomethylpyridinium chloride] | 0.19 | 28.2 | 160 | – | – | – | – | – | – | 88.5
CCCCCCCCCCCCCCCCCCOc1c(OC)cc(COCC(COC(=O)N(Cc2cccc[n+]2CC)C(=O)c2ccccc2OC)OC)cc1OC (stereo not shown) [Example 18, 1-ethyl-2-(((N-((3,5-dimethoxy-4-octadecyloxy)benzyloxy-2-methoxypropyloxy))carbonyl-N-(2-methoxy)benzoyl))) aminomethyl pyridinium chloride] | 0.71 | 37.7 | 660 | – | – | – | – | – | – | 74.1
